Reference: US20130059096A1, “METHODS AND COATINGS FOR TREATING BIOFILMS” (President and Fellows of Harvard College, priority 2010, published 2013)

Key:
P.a. Harvard PA14 = experiment: Biofilm (colony architecture) formation on defined M63 medium; format: cell-based, Pseudomonas aeruginosa; details: 500 μM
Description: Similarly to Bacillus subtilis, Pseudomonas aeruginosa forms a complex architecture on defined medium. These complex structures require the proper formation and assembly of the extra-cellular matrix. […] For these experiments, the organism/strain was P.a. Harvard PA14, the culture medium was M63 and the cell inoculation was at 1.5×10^9 cfu.

TasA-mCherry = format: cell-based, Bacillus subtilis; details: 6 μM
Experimental: Fluorescence microscopy. For fluorescence microscopy analysis, 1 ml of culture was harvested. The cells were washed with PBS buffer and suspended in 50 μl of PBS buffer. Cover slides were pretreated with poly L-lysine (Sigma). Samples were examined using an Olympus workstation BX61 microscope. Images were taken using the automated software program SimplePCI and analyzed with program MetaMorph (Universal Imaging Corporation).
The cells were grown to stationary phase with shaking in biofilm-inducing medium in the presence or absence of D-tyrosine (6 μM). […] In contrast, when the cells were washed by centrifugation, resuspended and then examined by fluorescence microscopy, untreated cells (which were often in clumps) were seen to be intensely decorated with TasA-mCherry. […] The localization of unmodified TasA protein was also analyzed by transmission electron microscopy using gold-labeled anti-TasA antibodies. […] 24-hour-old cultures were incubated without (images 1 and 2) or with (images 3-6) D-tyrosine (0.1 mM) for an additional 12 hours. TasA fibers were stained by immunogold labeling using anti-TasA antibodies, and visualized by transmission electron microscopy as described in the Examples. […] Filled arrows indicate fiber bundles; open arrows indicate individual fibers. The scale bar is 500 nm. The scale bar in the enlargements of images 2, 4 and 6 is 100 nm. […]

[1] = tested on: Bacillus subtilis NCIB3610; experiment: Pellicle (biofilm) formation in liquid biofilm-inducing medium; format: cell-based
Experimental: (§1) Colony and pellicle formation. For colony formation on solid medium, cells were first grown to exponential growth phase in LB broth and 3 μl of culture were spotted onto solid MSgg medium containing 1.5% Bacto agar. The plates were incubated at 23° C. For pellicle formation in liquid medium, cells were grown to exponential phase and 6 μl of culture were mixed with 6 ml of medium in a 12-well plate (VWR). Plates were incubated at 23° C. Images of colonies and pellicles were taken using a SPOT camera (Diagnostic Instruments, USA).
Preparing conditioned medium. Cells were grown in LB medium to exponential phase. 0.1 ml of culture was added to 100 ml of MSgg medium and grown without shaking in a 500 ml beaker at 23° C. Next, pellicles and conditioned medium was collected by centrifugation at 8,000 rpm for 15 min. The conditioned medium (supernatant fluid) was removed and filtered through a 0.22 μm filter. The filtrates were stored at 4° C. For further purification the biofilm-inhibiting activity was fractionated on a C-18 Sep Pak cartridge using stepwise elution of 0% to 100% methanol with steps of 5%.
To investigate whether mature biofilms produce a factor that triggers biofilm disassembly, the effect of concentrated and partially purified extracts of conditioned medium on pellicle formation when added to fresh medium was assayed. To this end, conditioned medium from an eight-day-old culture was applied to a C18 Sep Pak column. Concentrated eluate from the column was then added to a freshly inoculated culture. […] Further purification of the factor was achieved by eluting the cartridge in step-wise fashion with increasing concentrations of methanol.
Next, the minimum concentration (MIC for Minimal Inhibitory Concentration) needed to prevent biofilm formation was determined.

[2] = tested on: Bacillus subtilis NCIB3610; experiment: Colony biofilm formation on solid MSgg medium; format: cell-based; details: 3 μM, 4 days
Experimental: as §1

Bacillus subtilis = experiment: Cell growth in MSgg medium with shaking; format: cell-based; details: 3 μM

N[C@H](Cc1ccc(O)cc1)C(=O)O [D-tyrosine]
Biofilm formation on defined medium (FIG. 20) (P.a. Harvard PA14): inhibited biofilm formation | total accumulation of TasA-mCherry (FIG. 3B) (TasA-mCherry; grown to stationary phase with shaking): little or no effect | Cell decoration with TasA-mCherry, fluorescence microscopy of washed cells (TasA-mCherry; grown to stationary phase, washed and resuspended): only low levels of fluorescence | Effect on pellicle formation (FIG. 2A) ([1]; 3 μM, freshly inoculated culture, biofilm-inducing medium, 3 days): significant inhibition of biofilm growth | minimum concentration (MIC / MBIC) needed to prevent biofilm formation ([1]; FIG. 2B, complete inhibition of pellicle formation, mixture in equimolar amounts): about 100 nM | Biofilm-inhibition assay for B. subtilis ([1]; summary statement, concentration not given): significant inhibition of biofilm growth | Biofilm formation on solid MSgg medium (FIG. 6) [2]: inhibited biofilm formation | Cell growth (FIG. 8) (Bacillus subtilis): substantially the same as the untreated sample
